Consider four molecules from ChEMBL document CHEMBL1201862, “PubChem BioAssay data set” (2004).

Test systems include MCF7; HCT-15; SK-OV-3; IGROV-1; HOP-92; M14; TK-10; MDA-N; RXF 393; A498; HOP-62; 786-0; BT-549; COLO 205; CAKI-1; K562; NCI-H226; OVCAR-8; SW-620; Hs-578T.
What all share (assay): NCI tumour cell line growth inhibition, 48 h

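48-hour exposure; five concentrations; linearly interpolated endpoints. GI50 marks 50% less growth.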 Activity calls are given as the source filed them. Cut-off read from the data, not from the text of the source: active = GI50 up to about 1.1 µM and inactive = higher.

Consider `N#CC1C(=O)NC23CCCCC2C1c1ccccc1O3` (stereo unspecified), for which the GI50 in the assay on MCF7 was > 100 µM (inactive); with HCT-15, greater than 100 µM; in the assay on SK-OV-3, > 100 µM (inactive); in the assay on IGROV-1, > 100 µM (inactive); in the assay on HOP-92, 0.241 µM (active); in the assay on M14 it was > 100 µM (inactive). For the same molecule, the GI50 with TK-10, in the assay with MDA-N, in the assay on RXF 393, in the assay on A498, with HOP-62 and in the assay with 786-0 was > 100 µM (inactive) in each case. Moreover, the GI50 with BT-549, in the assay on COLO 205, with CAKI-1, with K562, with NCI-H226 and with OVCAR-8 was > 100 µM (inactive) each time. Further, the GI50 in the assay on SW-620 was > 100 µM (inactive).

As for `O=C1CCN2c3ccccc3[C@H]3Cc4cccc(c4[C@@H]2C3)CCO1`, the GI50 in the assay with MCF7 was 41.5 µM (inactive); in the assay on HCT-15, 26.9 µM; in the assay with SK-OV-3, 51.2 µM (inactive); in the assay on IGROV-1 it was 22 µM (inactive); in the assay on HOP-92 it was 31 µM (inactive); in the assay on M14, 19.4 µM (inactive). Further, the GI50 with TK-10 was 65.6 µM (inactive); in the assay on MDA-N, 26.2 µM (inactive); in the assay on RXF 393 it was 47.4 µM (inactive); in the assay on A498, 56.5 µM (inactive); in the assay on HOP-62 it was 56.2 µM (inactive); in the assay with 786-0, 41.8 µM (inactive). The GI50 in the assay on BT-549 was 57.8 µM (inactive); in the assay on COLO 205, 33.5 µM (inactive); in the assay on CAKI-1, 41.9 µM (inactive); with K562, 21.8 µM (inactive); in the assay with NCI-H226, 32.9 µM (inactive); in the assay with OVCAR-8 it was 31.7 µM (inactive). The GI50 in the assay on SW-620 is 35.3 µM (inactive).

Regarding `Cc1ccc2c(c1)C(=C(C#N)C#N)CCCS2(=O)=O`, the GI50 was greater than 100 µM with HCT-15; > 100 µM (inactive) in the assay with SK-OV-3; > 100 µM (inactive) in the assay with IGROV-1; > 100 µM (inactive) in the assay on HOP-92; > 100 µM (inactive) with M14; > 100 µM (inactive) in the assay on TK-10. Also, the GI50 in the assay with MDA-N, in the assay with RXF 393, in the assay on A498, in the assay on HOP-62, in the assay on 786-0 and in the assay with Hs-578T was > 100 µM (inactive) each time. For the same molecule, the GI50 in the assay with BT-549, in the assay on COLO 205, in the assay on CAKI-1, in the assay on K562, in the assay with NCI-H226 and in the assay on OVCAR-8 was > 100 µM (inactive) in each case. Further, the GI50 with SW-620 was > 100 µM (inactive).

Consider `COC(=O)C1=CC2C(=O)c3ccccc3C1(c1ccccc1)N2C1CCCCC1` (stereo unspecified), for which the GI50 with MCF7 was 15.6 µM (inactive); in the assay on HCT-15 it was 27 µM; in the assay on SK-OV-3, 31 µM (inactive); with IGROV-1, 20.1 µM (inactive); with HOP-92 it was 22.6 µM (inactive); with M14, 20 µM (inactive). The GI50 was 30.1 µM (inactive) with TK-10; 23.7 µM (inactive) with MDA-N; 7.87 µM (inactive) with RXF 393; 26.7 µM (inactive) with A498; 16.7 µM (inactive) in the assay on HOP-62; > 100 µM (inactive) in the assay on 786-0. The GI50 was 22.6 µM (inactive) with BT-549; 13.1 µM (inactive) with COLO 205; 20.5 µM (inactive) in the assay with CAKI-1; 4.63 µM (inactive) in the assay with K562; 24.7 µM (inactive) in the assay on NCI-H226; 27 µM (inactive) in the assay with OVCAR-8. In addition, the GI50 with SW-620 is 27.2 µM (inactive).
